Experimental data published in patent US20240067617A1 (Albireo AB, priority 2022, published 2024).

What follows are compounds tested against T1, hIBAT (Homo sapiens, UniProt Q12908) (assay: IBAT (h/m) assay: 3H-taurocholic acid uptake in human IBAT-overexpressing cells). Conditions: 0.25 μM 3H-taurocholic acid + 5 μM cold taurocholic acid, 20 minutes at 37° C., highest test concentration 10 μM.
T1 construct: expressed in transfected cells; kept under Puromycin selection
T1 sequence (Q12908 1-348): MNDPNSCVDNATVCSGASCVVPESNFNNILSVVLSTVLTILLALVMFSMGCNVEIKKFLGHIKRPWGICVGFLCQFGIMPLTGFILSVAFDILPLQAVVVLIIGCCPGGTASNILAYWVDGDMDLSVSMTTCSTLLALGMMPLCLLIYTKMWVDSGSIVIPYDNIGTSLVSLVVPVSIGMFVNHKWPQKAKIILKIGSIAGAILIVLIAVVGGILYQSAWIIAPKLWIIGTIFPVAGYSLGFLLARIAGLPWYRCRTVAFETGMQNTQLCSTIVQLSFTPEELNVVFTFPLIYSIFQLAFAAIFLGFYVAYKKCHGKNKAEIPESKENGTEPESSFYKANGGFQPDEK
Format: cell-based
In short: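 Human or mouse IBAT-overexpressing cells cultured 48 h, then exposed for 20 min at 37 °C to compounds (top 10 μM, 3-fold, 10 points; 0.2% DMSO) with 0.25 μM 3H-taurocholic acid plus 5 μM cold taurocholic acid. Uptake stopped on ice, cells washed with cold 1 mM taurocholic acid, radioactivity counted by scintillation.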

| SMILES | IC50 [nM] |
| --- | --- |
| CCCCC1(CC)CN(c2ccccc2)c2cc(SC)c(CSCC(=O)O)cc2S(=O)(=O)C1 (single isomer, unassigned) [2, enantiomer 1] | 0.2 |
| CCCCC1(C)CN(c2ccccc2)c2cc(SC)c(CSCC(=O)O)cc2S(=O)(=O)C1 (single isomer, unassigned) [5, enantiomer 1] | 0.7 |
| CCCCC1(CC)CN(c2ccc(F)cc2)c2cc(SC)c(CSCC(=O)O)cc2S(=O)(=O)C1 (single isomer, unassigned) [7, enantiomer 1] | 0.4 |
